Results on one substance are retold here after patent US8815948B2, “High volume and alternative methods of delivering homeopathic remedies” (Dovetail Technologies, Inc., priority 2004, dated 2014).

This experiment has as its system cat with Gran Mal seizures. The experiment in a line: Taurox SB added to food of a cat with Gran Mal seizures. To be noted: cat Misty, before Taurox SB. The format is in vivo. The source says: The homeopathic remedy may be included in food. For example, Misty, a cat who had been accepted by a rescue shelter, suffered with severe, potentially life-threatening Gran Mal seizures about three times a day and almost every other day. […] Overall, she averaged a few a month while being treated.
The homeopathic remedy may also be included in food. […] This invention applies to all foods from treats treated with the homeopathic on site, to the bulk supplied food while making it, to massive watering systems used to water livestock or irrigate fields. It applies to all forms of life including human, animal and plant.

For the substance Bromide salts, the “benefit on seizures of earlier medication” value is “without significant benefits”.
